Source: patent US10487345B2, “Methods for making and using polynucleotide sequences in the synthesis of alkaloid compounds” (priority 2014, dated 2019)

Tests used:
GFLOMT6 = GFLOMT6 (Glaucium flavum, UniProt A0A0H4IRD2); assay: Standard OMT assay, substrate specificity of recombinant GFLOMT6; assay type: biochemical; details: for conversion of substrate by GFLOMT6 / acceptance as substrate by GFLOMT6 (in words): standard OMT assay; for Substrate specificity, enzyme GFLOMT6: substrate conversion in the standard OMT assay (percent)
Excerpt: (§1) Full-length cDNAs for the seven GFLOMT candidates (see: Example 6) were cloned into the pRSETA expression vector with an N-terminal His_tag translational fusion and expressed in E. coli. Recombinant GFLOMTs were purified from total protein extracts using a cobalt-affinity resin.

GFLOMT2 [1] = target: T1, GFLOMT2 (Glaucium flavum, UniProt A0A0H4ILZ3); assay: Standard OMT assay, substrate specificity of recombinant GFLOMT2; assay type: biochemical; details: for conversion of substrate by GFLOMT2: standard OMT assay; for Substrate specificity, enzyme GFLOMT2: substrate conversion in the standard OMT assay (percent)
T1 sequence (A0A0H4ILZ3 1-348): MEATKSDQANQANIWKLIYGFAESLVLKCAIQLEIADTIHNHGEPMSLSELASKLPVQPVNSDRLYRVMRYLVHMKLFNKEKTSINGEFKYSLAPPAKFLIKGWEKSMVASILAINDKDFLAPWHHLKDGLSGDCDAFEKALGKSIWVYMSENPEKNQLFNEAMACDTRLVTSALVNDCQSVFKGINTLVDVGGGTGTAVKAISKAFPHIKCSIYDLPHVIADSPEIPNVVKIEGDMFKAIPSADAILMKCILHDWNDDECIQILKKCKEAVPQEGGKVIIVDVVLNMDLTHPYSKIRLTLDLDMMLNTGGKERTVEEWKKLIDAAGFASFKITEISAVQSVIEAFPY
Excerpt: as §1

GFLOMT1 = GFLOMT1 (Glaucium flavum, UniProt A0A0H4IRD0); assay: Standard OMT assay, substrate specificity of recombinant GFLOMT1; assay type: biochemical; details: for conversion of substrate by GFLOMT1: standard OMT assay, in the presence of SAM; for Substrate specificity, enzyme GFLOMT1: substrate conversion in the standard OMT assay in the presence of SAM (percent)
Excerpt: as §1

GFLOMT7 = assay: Standard OMT assay, substrate specificity of recombinant GFLOMT7; assay type: biochemical, Glaucium flavum; details: for conversion of substrate by GFLOMT7: standard OMT assay; for Substrate specificity, enzyme GFLOMT7: substrate conversion in the standard OMT assay (percent)
Excerpt: as §1

GFLOMT2 [2] = target: T1, GFLOMT2; details: read-out: Km of GFLOMT2 for substrate; preferred substrate yielding single reaction product

Structure (SMILES)	conversion of substrate by GFLOMT6 (GFLOMT6)	Substrate specificity, enzyme GFLOMT6 (GFLOMT6)	conversion of substrate by GFLOMT2 (GFLOMT2 [1])	Substrate specificity, enzyme GFLOMT2 (GFLOMT2 [1])	conversion of substrate by GFLOMT1 (GFLOMT1)	Substrate specificity, enzyme GFLOMT1 (GFLOMT1)	acceptance as substrate by GFLOMT6 (in words) (GFLOMT6)	conversion of substrate by GFLOMT7 (GFLOMT7)	Substrate specificity, enzyme GFLOMT7 (GFLOMT7)	Km (GFLOMT2 [2])
COc1ccc(C[C@H]2c3cc(O)c(OC)cc3CCN2C)cc1O [(S)-Reticuline, Reticuline]	97%	97	22%	22	6%	6	–	–	–	–
COc1cc2c(cc1O)C(Cc1ccc(O)c(O)c1)NCC2 (racemic) [(R,S)-6-O-Methylnorlaudanosoline, 6-O-Methylnorlaudanosoline]	–	–	1%	1	87%	87	did not accept	–	–	–
COc1ccc(C[C@@H]2NCCc3cc(OC)c(O)cc32)cc1O (racemic) [(R,S)-Norreticuline, Norreticuline]	36%	36	–	–	–	–	–	–	–	–
COc1cc2c(cc1O)C(Cc1ccc(O)c(O)c1)N(C)CC2 (racemic) [(R,S)-6-O-Methyllaudanosoline, 6-O-Methyllaudanosoline]	23%	23	14%	14	68%	68	–	–	–	–
COc1cc2c(cc1O)C1Cc3ccc(OC)c(O)c3CN1CC2 (racemic) [(R,S)-Scoulerine, Scoulerine]	100%	100	75%	75	32%	32	–	12%	12	–
Oc1ccc(CC2NCCc3cc(O)c(O)cc32)cc1O (racemic) [(R,S)-Norlaudanosoline, Norlaudanosoline]	–	–	100%	100	96%	96	did not accept	–	–	15 µM
COc1cc2c(cc1O)[C@@H]1Cc3ccc(OC)c(OC)c3CN1CC2 (racemic) [(R,S)-Tetrahydrocolubamine, Tetrahydrocolumbamine]	90%	91	32%	32	19%	19	–	8%	8	–
